Measured values: patent publication US20230173018A1, “CASPOFUNGIN DERIVATIVES AND ASSAYS FOR EVALUATING ANTIFUNGAL TREATMENT EFFICACY” (priority 2020, published 2023)
Converted amounts (≈) assume the structure as drawn. Read-outs that look alike come from different tables or passages of the source.

Columns and labels:
Assay type in all cases: cell-based
[1] = tested on: C. albicans CAF2-1; experiment: microbe, parasite or virus in culture
From the text: (§1) The antifungal activities of compounds 1a, 1 and 2 (collectively: caspofungin derivatives) were compared to that of caspofungin and CSF-BOD using a panel of 49 C. albicans and C. glabrata strains (Tables 1 and 2). The panel included ATCC strains and clinical isolates as well a collection of caspofungin-responsive strains and their corresponding isogenic caspofungin-resistant derivatives, constructed by introducing point mutations within and near the defined hotspots in the FKS1 and/or FKS2 genes of the GS complex. Minimal inhibitory concentration (MIC) values for all strains were determined using the broth double dilution method and are summarized in FIG. 2 and Table 2. […] The clinical breakpoints (threshold) for caspofungin-resistance in C. albicans and C. glabrata are 1 μg/mL and 0.5 μg/mL, respectively.

[2] = tested on: C. glabrata BG2; experiment: MIC, broth double dilution; settings: strain no. 34, C. glabrata BG2
From the text: as §1

[3] = tested on: C. glabrata CST109; experiment: MIC, broth double dilution; settings: strain no. 18, C. glabrata CST109 (parental)
From the text: as §1

[4] = tested on: C. glabrata ATCC 66032; experiment: MIC, broth double dilution; settings: strain no. 40, C. glabrata ATCC 66032
From the text: as §1

[5] = tested on: C. glabrata EF1620; experiment: MIC, broth double dilution; settings: strain no. 31, C. glabrata EF1620
From the text: as §1

[6] = tested on: C. glabrata CST34; experiment: MIC, broth double dilution; settings: strain no. 21, C. glabrata CST34 (parental)
From the text: as §1

[7] = tested on: C. glabrata T-984 (11-078); experiment: MIC, broth double dilution
From the text: as §1

[8] = tested on: C. glabrata T-192 (1775); experiment: MIC, broth double dilution
From the text: as §1

[9] = tested on: C. glabrata ATCC 90030; experiment: MIC, broth double dilution
From the text: as §1

[10] = tested on: C. albicans SC5314; experiment: MIC, broth double dilution; settings: strain no. 1, C. albicans SC5314, WT
From the text: as §1

[11] = tested on: C. glabrata T-191 (11-331); experiment: MIC, broth double dilution
From the text: as §1

[12] = tested on: C. glabrata T-193 (11-282); experiment: MIC, broth double dilution
From the text: as §1

[13] = tested on: C. glabrata ATCC 2001; experiment: MIC, broth double dilution
From the text: as §1

[14] = tested on: C. albicans ATCC 24433; experiment: MIC, broth double dilution; settings: strain no. 6, C. albicans ATCC 24433
From the text: as §1

[15] = tested on: C. glabrata T-983 (11-079); experiment: MIC, broth double dilution
From the text: as §1

[16] = tested on: panel of 49 C. albicans and C. glabrata strains; experiment: Antifungal activity (MIC) compared to caspofungin over the panel; settings: for antifungal activity spectrum: resistant vs responsive strains of the panel; for antifungal activity based on MIC values: panel of 49 strains; for MIC values higher than the parent caspofungin: ratio to caspofungin MIC, FIG. 2, Table 2
From the text: as §1, with “Minimal inhibitory concentration (MIC) values for all strains were determined using the broth double dilution method and are summarized in FIG. 2 and Table 2.” left out, “respectively. […]” for “respectively.”

[17] = tested on: C. albicans SC5314 cells; experiment: Cell viability by propidium iodide (PI) staining, PBS vs YPAD; settings: 1 μM
Protocol: To determine whether the caspofungin relocalization and apparent cell damage and death is a feature of caspofungin (and not only of the fluorescent caspofungin probe 1), cell viability was followed using propidium iodide (PI), a dye normally excluded from metabolically active cells.
Cell viability was compared in the presence and absence of 1 μM unlabeled caspofungin, using cells incubated either in PBS or in YPAD. […] Thus, cells exposed to caspofungin in nutrient-rich conditions become permeable to PI, an indicator of cell death. This observation explains the non-specific distribution of probe 1 in the cytoplasm after prolonged incubation (FIG. 7A). It is also consistent with the idea that plasma membrane permeabilization and cell death are likely accompanied by the loss of structural integrity of organelles, including the vacuoles detected here.

[18] = tested on: C. albicans SC5314 and SN152; experiment: Competition for cellular uptake with probe 1, flow cytometry; settings: added simultaneously with probe 1; caspofungin 1 μM, 10 μM; fluconazole 10 μM
Protocol: To determine if caspofungin competes for cellular uptake with fluorescent probe 1, both the drug and the probe were added simultaneously to cultures of strains SC5314 and SN152. The uptake of probe 1 was measured by flow cytometry every 15 minutes for 1 hour (FIG. 6B). […] No effect on the uptake of probe 1 was detected in cells co-treated with the antifungal azole drug fluconazole, which inhibits the biosynthesis of fungal membrane sterol, ergosterol.

[19] = strain no. 10, CAF2-1, parental SC5314
[20] = strain no. 48, T-984 (11-078), clinical isolate
[21] = strain no. 44, T-192 (1775), clinical isolate
[22] = strain no. 16, C. glabrata ATCC 90030, WT
[23] = strain no. 43, T-191 (11-331), clinical isolate
[24] = strain no. 45, T-193 (11-282), clinical isolate
[25] = strain no. 39, C. glabrata ATCC 2001
[26] = strain no. 47, T-983 (11-079), clinical isolate
[27] = Nakaseomyces glabratus, read-out: MIC

Row | Compound | MIC [1, 19] [µg/mL] | MIC [2] [µg/mL] | MIC [3] [µg/mL] | MIC [4] [µg/mL] | MIC [5] [µg/mL] | MIC [6] [µg/mL] | MIC [7, 20] [µg/mL] | MIC [8, 21] [µg/mL] | MIC [9, 22] [µg/mL] | MIC [10] [µg/mL] | MIC [11, 23] [µg/mL] | MIC [12, 24] [µg/mL] | MIC [13, 25] [µg/mL] | MIC [14] [µg/mL] | MIC [15, 26] [µg/mL] | antifungal activity spectrum [16] | antifungal activity based on MIC values [16] | MIC values higher than the parent caspofungin [16] | other results
1 | CC[C@H](C)C[C@H](C)CCCCCCCCC(=O)N[C@H]1C[C@@H](O)[C@@H](NCCNC(=O)CCc2ccc3n2[B-](F)(F)[N+]2=C(C)C=C(C)C2=C3)NC(=O)[C@@H]2[C@@H](O)CCN2C(=O)[C@H]([C@H](O)CCN)NC(=O)[C@H]([C@H](O)[C@@H](O)c2ccc(O)cc2)NC(=O)[C@@H]2C[C@@H](O)CN2C(=O)[C@H]([C@@H](C)O)NC1=O [CSF-BOD] | 2 (≈ 1.46 µM) | 2 (≈ 1.46 µM) | 2 (≈ 1.46 µM) | 2 (≈ 1.46 µM) | 1 (≈ 0.731 µM) | 1 (≈ 0.731 µM) | 2 (≈ 1.46 µM) | 2 (≈ 1.46 µM) | 2 (≈ 1.46 µM) | 1 (≈ 0.731 µM) | 1 (≈ 0.731 µM) | 1 (≈ 0.731 µM) | 1 (≈ 0.731 µM) | 2 (≈ 1.46 µM) | 2 (≈ 1.46 µM) | identical to that of caspofungin |  |  | MIC values higher than those of caspofungin ([16]; against the responsive strains from the tested panel): 8-32 fold
2 | CC[C@H](C)C[C@H](C)CCCCCCCCC(=O)N[C@H]1C[C@@H](O)[C@@H](NCCN)NC(=O)[C@@H]2[C@@H](O)CCN2C(=O)[C@H]([C@H](O)CCN)NC(=O)[C@H]([C@H](O)[C@@H](O)c2ccc(O)cc2)NC(=O)[C@@H]2C[C@@H](O)CN2C(=O)[C@H]([C@@H](C)O)NC1=O [Caspofungin] |  |  |  |  |  |  |  |  |  |  |  |  |  |  |  |  |  |  | cell viability, PI staining ([17]; PBS): cells excluded the PI stain; cell viability, PI staining ([17]; YPAD, after 15 min): viable; cell viability, PI staining ([17]; YPAD, after 2 h): stained brightly with PI; MIC ([1]; Candida albicans, SC5314): 0.063 µg/mL (≈ 0.0576 µM); MIC [2, 27]: 0.125 µg/mL (≈ 0.114 µM); MIC [3, 27]: 0.125 µg/mL (≈ 0.114 µM); MIC ([4]; Nakaseomyces glabratus, ATCC66032, read-out: MIC): 0.125 µg/mL (≈ 0.114 µM); MIC [5, 27]: 0.063 µg/mL (≈ 0.0576 µM); MIC [6, 27]: 0.063 µg/mL (≈ 0.0576 µM); MIC ([7]; Nakaseomyces glabratus): 0.063 µg/mL (≈ 0.0576 µM); MIC ([8]; Nakaseomyces glabratus): 0.063 µg/mL (≈ 0.0576 µM); MIC ([9]; Nakaseomyces glabratus, ATCC90030): 0.125 µg/mL (≈ 0.114 µM); MIC ([10]; Candida albicans, read-out: MIC): 0.031 µg/mL (≈ 0.0284 µM); MIC ([11]; Nakaseomyces glabratus): 0.063 µg/mL (≈ 0.0576 µM); MIC ([12]; Nakaseomyces glabratus): 0.125 µg/mL (≈ 0.114 µM); MIC ([13]; Nakaseomyces glabratus, ATCC2001): 0.125 µg/mL (≈ 0.114 µM); MIC ([14]; Candida albicans, ATCC24433, read-out: MIC): 0.063 µg/mL (≈ 0.0576 µM); MIC ([15]; Nakaseomyces glabratus): 0.063 µg/mL (≈ 0.0576 µM); effect on the uptake of probe 1 [18]: reduced the uptake of probe 1 in a dose-dependent manner
3 | CC[C@H](C)C[C@H](C)CCCCCCCCC(=O)N[C@H]1C[C@@H](O)[C@@H](NCCN)NC(=O)[C@@H]2[C@@H](O)CCN2C(=O)[C@H]([C@H](O)CCN)NC(=O)[C@H]([C@H](O)[C@@H](O)c2ccc(OCc3cn(CCCNC(=O)c4ccc(-c5c6ccc(=[N+](C)C)cc-6oc6cc(N(C)C)ccc56)c(C(=O)[O-])c4)nn3)cc2)NC(=O)[C@@H]2C[C@@H](O)CN2C(=O)[C@H]([C@@H](C)O)NC1=O [Compound 1] | 0.5 (≈ 0.304 µM) | 1 (≈ 0.608 µM) | 1 (≈ 0.608 µM) | 1 (≈ 0.608 µM) | 0.5 (≈ 0.304 µM) | 0.5 (≈ 0.304 µM) | 0.5 (≈ 0.304 µM) | 0.5 (≈ 0.304 µM) | 1 (≈ 0.608 µM) | 0.25 (≈ 0.152 µM) | 0.5 (≈ 0.304 µM) | 1 (≈ 0.608 µM) | 1 (≈ 0.608 µM) | 0.5 (≈ 0.304 µM) | 0.5 (≈ 0.304 µM) | identical to that of caspofungin | retained antifungal activities | 4-16 | 
4 | C#CCOc1ccc([C@H](O)[C@@H](O)[C@@H]2NC(=O)[C@@H]3C[C@@H](O)CN3C(=O)[C@H]([C@@H](C)O)NC(=O)[C@@H](NC(=O)CCCCCCCC[C@@H](C)C[C@@H](C)CC)C[C@@H](O)[C@@H](NCCN)NC(=O)[C@@H]3[C@@H](O)CCN3C(=O)[C@H]([C@H](O)CCN)NC2=O)cc1 [Compound 1a] |  | 0.5 (≈ 0.442 µM) | 1 (≈ 0.884 µM) | 1 (≈ 0.884 µM) | 0.5 (≈ 0.442 µM) | 0.25 (≈ 0.221 µM) | 0.5 (≈ 0.442 µM) | 0.5 (≈ 0.442 µM) | 1 (≈ 0.884 µM) | 0.125 (≈ 0.11 µM) | 0.25 (≈ 0.221 µM) | 1 (≈ 0.884 µM) | 0.5 (≈ 0.442 µM) | 0.125 (≈ 0.11 µM) | 0.25 (≈ 0.221 µM) |  | retained antifungal activities | 1-8 | 
5 | CC[C@H](C)C[C@H](C)CCCCCCCCC(=O)N[C@H]1C[C@@H](O)[C@@H](NCCN)NC(=O)[C@@H]2[C@@H](O)CCN2C(=O)[C@H]([C@H](O)CCN)NC(=O)[C@H]([C@H](O)[C@@H](O)c2ccc(OCc3cn(CCCNc4ccc([N+](=O)[O-])c5nonc45)nn3)cc2)NC(=O)[C@@H]2C[C@@H](O)CN2C(=O)[C@H]([C@@H](C)O)NC1=O [Compound 2] | 1 (≈ 0.717 µM) | 4 (≈ 2.87 µM) | 4 (≈ 2.87 µM) | 2 (≈ 1.43 µM) | 2 (≈ 1.43 µM) | 4 (≈ 2.87 µM) | 2 (≈ 1.43 µM) | 2 (≈ 1.43 µM) | 4 (≈ 2.87 µM) | 1 (≈ 0.717 µM) | 2 (≈ 1.43 µM) | 4 (≈ 2.87 µM) | 2 (≈ 1.43 µM) | 1 (≈ 0.717 µM) | 2 (≈ 1.43 µM) | identical to that of caspofungin | retained antifungal activities | 16-16 | 
6 | CN(C)c1ccc2c(-c3ccc(C(=O)NCCCN=[N+]=[N-])cc3C(=O)[O-])c3ccc(=[N+](C)C)cc-3oc2c1 [Compound 5-TMR-azide] | >64 | >64 | >64 | >64 | >64 | >64 | >64 | >64 | >64 | >64 | >64 | >64 | >64 | >64 | >64 |  |  |  | 
